Data from patent publication US20080226565A1, “Anticariogenic Proteins & Peptides & Saccharides” (priority 2004, published 2008).

Assays:
[1] = In-vivo: tooth samples treated with peptide, 12 hours in the oral cavity, then acetic acid, Knoop hardness; design: species or system human; settings: for B: Average initial hardness of the tooth surface (st. dev.): before treatment
Description: In another experiment, 126 sterilized tooth samples where treated with a variety of peptides, fixed to the device and positioned after the lower jaw in the oral cavity of 5 volunteers. The device remained in the oral cavity for a period of 12 hours after which the teeth where removed, cleaned and subjected to a drop of acetic acid (0.1N, 30 min., 37° C). Subsequently the acid was removed, the teeth where cleaned and the hardness was measured (Knoop method). The depth of penetration increased 8.82 μm, 5.40 μm, 5.32 μm and 3.77 μm respectively for teeth treated as blanco with 4.2% casein phosphopeptide e-polylysine copolymer, 7.5% phosvitin and with 4.2% bisphosphonylated e-polylysine. The p-values are respectively 0.000, 0.000 and 0.004 for casein phosphopeptide e-polylysine copolymer, bisphosphonylated e-polylysine and phosvitin.
Tooth samples have been cut in horizontal slices (thickness: 0.3 to 1 mm) with a Leitz 1600 tooth cutter with horizontal cutting blade; the slices are cut manually (with a bore) into small tooth samples that contain a small part of the original tooth surface. The tooth sample is positioned in a small plastic tube, that has been cut from a long plastic tube with 6 mm external diameter. The length of the tube is 3 to 6 mm. The inner part of the tube is filled with a polymer that hardens under light (Photoclearfil Bright; Kuraray). The tooth sample is positioned in the soft polymer inside the tube, in such a way that the original tooth surface is just surfacing above the tube. Finally the polymer is hardened with a light source. The tooth surface is polished with Struers silicon carbid paper (800-4000) and the hardness is measured 5 times on each of the samples under the Letiz Wetzlar microscope (weight on needle: 50 p). Tooth samples with a maximum average depth of penetration of 43 μm are retained for use in the oral cavity.
The tooth-samples are fixed to a device that has been described in the chapter “Description of the invention ( chapter: In-vivo experiments)” and the device is positioned in the oral cavity after the lower jaw.
A drop from a solution containing either, e-polylysine, CPP, bisphoshphonylated e-polylysine, casein phosphopeptide epsilon-polylysine copolymer or partially hydrolysed phosvitin has been positioned at the surface of tooth samples for a period of 30 minutes at 37 C.; the drop was removed and the procedure was repeated once more. All solutions contained also 3.1% CaCl2.2H2O and 1.7% KH2PO4 (except for the one containing e-polylysine).
The tooth surface was cleaned with a soft paper towel until it was visibly clean. Four such tooth samples where fixed to the device and located in the oral cavity behind the lower jaw. They resided in the oral cavity for a period of 12 hours (only to be removed during eating). Subsequently, they where removed, cleaned and the tooth surface was treated with a drop of acetic acid (0.1N, 30 min., 37° C.); the acid was removed, the tooth was washed with deionized water and the hardness was evaluated.
A: type of peptide ingredient in the solution (% on a w/w basis versus water). (*): the teeth where submerged (30 min.) in a saliva batch and dried afterwards on air, before they where treated with a solution that contained bisphosphonylated e-polylysine. B: Average initial hardness of the tooth surface; μm (st. dev.) C: Average hardness after treatment, after residing in the oral cavity and treatment with acid D: The average change in hardness (C−B) E: p-value (against blanco) of the Mann-Whitney statistical test F: the number of tooth samples that where treated with a specific formulation; hardness on each of the tooth samples was measured five times and an average value was calculated; most often 4 tooth samples per person; 5 volunteers participated to the experiment; the 132 tooth samples where randomized into groups (of 4 teeth) with the same average hardness value.

[2] = tested on: anaerobes isolated from the oral cavity; assay: Susceptibility (MIC), agar dilution, anaerobes from the oral cavity; type: cell-based, anaerobic bacteria; settings: for activity against anaerobes: explored range 0.2 to 3.5 mg/ml
Description: (§1) The investigations included more than hundred strains isolated from the oral cavity: : anaerobes, microaerophilic bacteria, aerobes, Streptococcus spp. and yeast like fungi. The microorganisms were isolated from saliva, mucosal membrane, gingival pockets and caries decay. The susceptibility (MIC) of bacteria and yeastlike fungi were determined by means of plate dilution technique in agar.
(§2) The investigated samples were dissolved in sterile distilled water (immediately before the experiment) to obtain the following concentrations: 3.5, 1.7, 0.8, 0.4 and 0.2 mg/ml and were added into appropriate agar. The plates were inoculated using a Steers multipoint inoculator. Inoculum contained 10^6 CFU/spot. In each experimental series, the growth of strains on the culture medium without the compounds investigated was checked. The concentration at which no macroscopic growth of the microbes was observed on the medium was regarded as the lowest concentration, inhibiting the growth of microbes (MIC). The examinations of the susceptibility of microbes to the peptides were carried out twice.
(§3) Anaerobes. The susceptibility of bacteria was determined by means of the agar dilution methods with Brucella agar supplemented with 5% defibrinated sheep's blood, menadione and hemin. Sample solutions with concentrations from of 3.5-0.2 mg/ml were added into agar. The agar plate without investigated samples was included as a bacterial growth control. The inoculum of 10^6 CFU/ml was applied to the agar plates with Steers replicator. Incubation was performed for 48 hrs at 37° C. (310° K) in anaerobic jars containing a mixture of 10% CO2, 10% H2 and 80% N2, in the presence of palladium catalyst and indicator of anaerobiosis. Microaerophilic bacteria. The susceptibility of bacteria was determined by means of the agar dilution methods with Brucella agar supplemented with 5% sheep's blood. Samples solutions with concentrations from of 3.5- 0.2 mg/ml were added into agar. The agar plate without investigated samples was included as a bacterial growth control. The inoculum of 10^6 CFU/ml was applied to the agar plates with Steers replicator. The incubation was performed at 37° C. in anaerobic jars with Campy Pak (bio Merieux) for 48 hours. Streptococcus spp. The susceptibility of bacteria was determined by means of the agar dilution methods with Mueller-Hinton agar supplemented with 5% sheep's blood. Samples solutions with concentrations from of 3.5- 0.2 mg/ml were added into agar. The agar plate without investigated samples was included as a bacterial growth control. The inoculum of 10^6 CFU/ml was applied to the agar plates with Steers replicator. Incubation was performed for 24 hrs at 37° C. (310° K) in anaerobic jars containing a mixture of 10% CO2 and 90% N2. Aerobes. The susceptibility to investigated samples was determined by means of the plate dilution technique in Mueller-Hinton agar. Samples solutions with concentrations from of 3.5- 0.2 mg/ml were added into agar. The agar plate without investigated samples was included as a bacterial growth control. The inoculum of 10^6 CFU/ml was applied to the agar plates with Steers replicator. Plates were incubated for 24 hrs in 37° C. under aerobic conditions. Yeast like fungi. The susceptibility of fungi to investigated samples was determined by means of the plate dilution technique in Sabouraud's agar. Samples solutions with concentrations from of 3.5- 0.2 mg/ml were added into agar. […]

[3] = tested on: aerobes isolated from the oral cavity; assay: Susceptibility (MIC), agar dilution, aerobes from the oral cavity; type: cell-based, aerobic bacteria; settings: for activity against aerobes: explored range 0.2 to 3.5 mg/ml
Description: as §1, §2
as §3, with “control. […]” for “control. The inoculum of 10^6 CFU/ml was applied to the agar plates with Steers replicator. Incubation was performed for 24 hrs at 37° C. (310° K) in anaerobic jars containing a mixture of 10% CO2 and 90% N2. Aerobes.”, “agar. […]” for “agar. Samples solutions with concentrations from of 3.5- 0.2 mg/ml were added into agar. The agar plate without investigated samples was included as a bacterial growth control. The inoculum of 10^6 CFU/ml was applied to the agar plates with Steers replicator. Plates were incubated for 24 hrs in 37° C. under aerobic conditions. Yeast like fungi.”, “agar.” for “agar. Samples solutions with concentrations from of 3.5- 0.2 mg/ml were added into agar.”

[4] = 4.2% w/w solution, 12 hours oral cavity, acetic acid 0.1N 30 min

Row | Substance | C: Average hardness after treatment, after residing in the oral cavity and treatment with acid [1, 4] | D: average change in hardness (C−B) [1, 4] | B: Average initial hardness of the tooth surface (st. dev.) ([1]; group for 4.2% solution) | anaerobes harvested from the oral cavity that are inhibited ([2]; at 0.2 to 0.4 mg/ml, 17 from 24 species) | mic-value (minimum inhibitory concentration) ([2]; gram-negative anaerobes, often, incl. Prevotella nigrescens, Porphyromonas gingivalis, Fusobacterium nucleatum) | aerobes harvested from the oral cavity that are inhibited ([3]; at 0.2 to 0.4 mg/ml, 2 from 17) | D: average change in hardness (C−B) ([1]; 4.2% solution (*): teeth submerged 30 min in saliva before treatment) | C: Average hardness after treatment, after residing in the oral cavity and treatment with acid ([1]; 4.2% solution (*): teeth submerged 30 min in saliva before treatment, 12 hours oral cavity, acid) | B: Average initial hardness of the tooth surface (st. dev.) ([1]; group for 4.2% solution (*)) | activity against anaerobes [2] | activity against aerobes [3] | D: average change in hardness (C−B) ([1]; 7.8% w/w solution) | C: Average hardness after treatment, after residing in the oral cavity and treatment with acid ([1]; 7.8% w/w solution, 12 hours oral cavity, acid) | B: Average initial hardness of the tooth surface (st. dev.) ([1]; group for 7.8% solution)
1 | Epsilon-polylysine (elys; e-polylysine) [Product 6] | 47.81 (3.67) μm | 6.93 μm | 40.88 (0.91) μm | 71% | ≤ 200 µg/mL | 12% | – | – | – | – | – | – | – | –
2 | bisphosphonylated epsilon-polylysine [bisphosphonylated e-polylysine] | 44.29 (2.08) μm | 3.77 μm | 40.52 (0.62) μm | – | – | – | 3.29 μm | 44.05 (2.92) μm | 40.76 (0.73) μm | good activity | not active | – | – | –
3 | casein phosphopeptide epsilon-polylysine copolymer [(CPP x elys)n] | 46.21 (1.94) μm | 5.40 μm | 40.81 (0.68) μm | – | – | – | – | – | – | less effective | not active | 2.41 μm | 42.92 (1.43) μm | 40.51 (1.55) μm
